One test deals with SseK1 (Salmonella enterica, UniProt A0A0H3NK84). In words: biochemical.
The target of a further test is NleB (Citrobacter rodentium, UniProt A0A482PDI9). The test can be described thus: biochemical.

pIC50: −log10 of the molar value.

Sequence of NleB (A0A482PDI9 whole entry, looked up): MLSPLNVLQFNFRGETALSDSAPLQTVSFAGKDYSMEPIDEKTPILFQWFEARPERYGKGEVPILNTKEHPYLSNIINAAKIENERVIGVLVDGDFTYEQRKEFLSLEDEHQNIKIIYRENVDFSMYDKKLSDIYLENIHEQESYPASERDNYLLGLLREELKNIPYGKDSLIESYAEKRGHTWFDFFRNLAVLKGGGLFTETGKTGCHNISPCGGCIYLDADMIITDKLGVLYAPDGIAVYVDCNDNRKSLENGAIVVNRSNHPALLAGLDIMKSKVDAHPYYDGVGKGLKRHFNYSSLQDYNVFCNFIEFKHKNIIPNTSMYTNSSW
Sequence of SseK1 (A0A0H3NK84 whole entry, looked up): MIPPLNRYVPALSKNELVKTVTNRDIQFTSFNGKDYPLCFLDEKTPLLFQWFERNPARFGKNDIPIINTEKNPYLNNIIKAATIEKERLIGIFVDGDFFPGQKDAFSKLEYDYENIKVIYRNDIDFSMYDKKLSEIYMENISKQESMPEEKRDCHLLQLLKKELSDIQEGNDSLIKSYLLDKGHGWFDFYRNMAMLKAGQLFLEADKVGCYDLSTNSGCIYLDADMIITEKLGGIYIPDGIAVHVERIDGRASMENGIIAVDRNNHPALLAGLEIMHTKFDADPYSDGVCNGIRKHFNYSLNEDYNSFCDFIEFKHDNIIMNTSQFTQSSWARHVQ

Regarding `CC(C)c1cc(C(C)C)c(CC(=O)NS(=O)(=O)Oc2c(C(C)C)cccc2C(C)C)c(C(C)C)c1` [avasimibe], the negative logarithm of the IC50 (pIC50) at SseK1 and against NleB was ~5.00 in each case.

For the origin of these results see PMC8953086, “Repurposing Avasimibe to Inhibit Bacterial Glycosyltransferases” (Pathogens, 2022).
